Measurements published in patent US20250263370A1 (Tay Therapeutics Limited, priority 2022, published 2025).
Values joined by “and” are separate entries in the source; they are usually repeats but may differ in a detail not shown here. Equal values may be shown once.

Test system: collagen-induced arthritis
Assay: Collagen-induced arthritis (CIA) model in rats: body weight, paw volume, clinical scores, clinical observations; as to Average detailed clinical score, left hind limb: key of the grades not given here; as to Average detailed clinical score, right hind limb: key of the grades not given here; as to Detailed Clinical Scores, left forelimb: key of the grades not given here; as to Detailed Clinical Scores, left hind limb: key of the grades not given here; as to Detailed Clinical Scores, right forelimb: key of the grades not given here; as to Detailed Clinical Scores, right hind limb: key of the grades not given here; as to Detailed Clinical Scores, score: key of the grades not given here; as to Mean overall clinical score ± SD: key of the grades not given here; as to Overall clinical score: key of the grades not given here
Settings: for Mean animal paw volume ± SD: group mean; for Detailed Clinical Scores, left forelimb / Detailed Clinical Scores, left hind limb / Detailed Clinical Scores, right forelimb / Detailed Clinical Scores, right hind limb / Detailed Clinical Scores, score: individual animals ID 1-8; for Overall clinical score: individual animals #1-8
[1] = CIA rats, daily P.O. (group 4), day 21
[2] = CIA rats, daily P.O. for 21 days

Procedure: Prior to be randomly placed in treatment groups, animals were weighed, and paw volume was measured. Once randomly assigned to treatment groups, on Day 0, animals in groups 2-9 were immunized by subcutaneous injection at the base of the tail.
The immunization comprised 100 μL of the CFA+Collagen emulsion (prepared according to the method in Experimental Method A). Animals in group one received no immunization. Seven days after the first injection, animals in groups 2-9 received a booster immunization comprising 200 μL of the IFA+Collagen emulsion (prepared according to the method in Experimental Method A).
Starting on Day 0, animals in group 1 and 2 were administered daily doses of the vehicle per os (P.O.) for 21 days. […] The twice daily doses for animals in groups 4-9 were 8 hours apart (e.g., the first dose at 8:00 AM and the second dose at 4:00 PM).
Body weight of all animals was recorded daily for the 21-day period. Blind clinical scores on all four limbs were conducted for all animals in the study. Animals were assessed prior to receiving their first dose of the compound or control, and scores for each limb were combined to a total daily score for each animal. Clinical score assessments were performed on Day 0, 6, 12, 13, 14, 15, 18, 19, and 21 (for a total of 9 daily scores).
Paw volume was recorded for each animal on Day 0, 6, 12, 13, 14, 15, 18, 19, and 21 (for a total of 9 measurements). To measure paw volume, animals were gently held with one hand while the hind paw was placed into a plethysmometer with the other hand. Lipid displacement by the paw was recorded and used to represent paw volume.
All data measured and recorded was analyzed using SPSS 16.0 software. Groups were compared using one-way ANOVA and significance was set at p<0.05.

With `CNC(=O)c1cc(C(=O)NC2CC2)cn(Cc2ccccc2)c1=O` [GSK620] the “Average animal paw volume percent change” value (CIA rats, Day 0, left hind paw (L)) was 0.00%, the “Animal paw volume Day 0 L” value (CIA rats, Day 0, left paw, individual animals) was 1.27 mL (2×) and 1.32 mL (2×) and 1.37 mL (2×) and 1.34 mL and 1.35 mL and the “Average animal paw volume percent change” value (CIA rats, Day 0, right hind paw (R)) was 0.00%. The “Animal paw volume Day 0 R” value (CIA rats, Day 0, right paw, individual animals) was 1.27 mL and 1.31 mL and 1.28 mL and 1.37 mL (2×) and 1.33 mL (2×) and 1.34 mL, the “Average animal paw volume percent change” value (CIA rats, Day 6, left hind paw (L)) was 1.04% and the “Animal paw volume Day 6 L” value (CIA rats, Day 6, left paw, individual animals) was 1.27 mL and 1.34 mL (2×) and 1.37 mL and 1.36 mL and 1.38 mL and 1.32 mL and 1.35 mL. For the same molecule, the “Average animal paw volume percent change” value (CIA rats, Day 6, right hind paw (R)) was 1.50%, the “Animal paw volume Day 6 R” value (CIA rats, Day 6, right paw, individual animals) was 1.27 mL and 1.35 mL and 1.38 mL and 1.37 mL and 1.39 mL and 1.33 mL (2×) and 1.34 mL and the “Average animal paw volume percent change” value (CIA rats, Day 12, left hind paw (L)) was 3.13%. The “Animal paw volume Day 12 L” value (CIA rats, Day 12, left paw, individual animals) was 1.33 mL (2×) and 1.41 mL and 1.37 mL and 1.42 mL and 1.36 mL and 1.35 mL and 1.38 mL, the “Average animal paw volume percent change” value (CIA rats, Day 12, right hind paw (R)) was 3.69% and the “Animal paw volume Day 12 R” value (CIA rats, Day 12, right paw, individual animals) was 1.31 mL and 1.35 mL and 1.42 mL and 1.39 mL (2×) and 1.38 mL (2×) and 1.37 mL. The “Average animal paw volume percent change” value (CIA rats, Day 13, left hind paw (L)) was 4.09%, the “Animal paw volume Day 13 L” value (CIA rats, Day 13, left paw, individual animals) was 1.34 mL (2×) and 1.43 mL (2×) and 1.36 mL and 1.37 mL and 1.38 mL and 1.40 mL and the “Average animal paw volume percent change” value (CIA rats, Day 13, right hind paw (R)) was 6.88%. The “Animal paw volume Day 13 R” value (CIA rats, Day 13, right paw, individual animals) was 1.40 mL and 1.35 mL and 1.42 mL (2×) and 1.57 mL and 1.37 mL and 1.41 mL and 1.39 mL, the “Average animal paw volume percent change” value (CIA rats, Day 14, left hind paw (L)) was 17.19% and the “Animal paw volume Day 14 L” value (CIA rats, Day 14, left paw, individual animals) was 1.55 mL and 1.78 mL and 1.44 mL and 1.36 mL and 1.43 mL and 1.40 mL and 1.73 mL (2×). For the same molecule, the “Average animal paw volume percent change” value (CIA rats, Day 14, right hind paw (R)) was 26.62%, the “Animal paw volume Day 14 R” value (CIA rats, Day 14, right paw, individual animals) was 1.74 mL and 1.49 mL and 1.44 mL and 2.11 mL and 1.43 mL and 1.38 mL and 1.99 mL and 1.83 mL and the “Average animal paw volume percent change” value (CIA rats, Day 15, left hind paw (L)) was 31.82%. The “Animal paw volume Day 15 L” value (CIA rats, Day 15, left paw, individual animals) was 2.04 mL and 2.03 mL and 1.39 mL and 1.49 mL and 1.52 mL and 1.60 mL and 2.14 mL and 1.75 mL, the “Average animal paw volume percent change” value (CIA rats, Day 15, right hind paw (R)) was 40.45% and the “Animal paw volume Day 15 R” value (CIA rats, Day 15, right paw, individual animals) was 2.05 mL and 2.08 mL and 1.38 mL and 2.42 mL and 1.47 mL and 1.56 mL and 2.13 mL and 1.79 mL. The “Average animal paw volume percent change” value (CIA rats, Day 18, left hind paw (L)) was 87.52%, the “Animal paw volume Day 18 L” value (CIA rats, Day 18, left paw, individual animals) was 2.72 mL and 2.54 mL and 2.39 mL and 2.87 mL and 2.29 mL and 2.05 mL and 2.66 mL and 2.34 mL and the “Average animal paw volume percent change” value (CIA rats, Day 18, right hind paw (R)) was 78.42%. The “Animal paw volume Day 18 R” value (CIA rats, Day 18, right paw, individual animals) was 2.62 mL and 2.45 mL and 2.41 mL and 3.15 mL and 1.46 mL and 2.04 mL and 2.38 mL and 2.34 mL, the “Average animal paw volume percent change” value (CIA rats, Day 19, left hind paw (L)) was 92.23% and the “Animal paw volume Day 19 L” value (CIA rats, Day 19, left paw, individual animals) was 2.71 mL and 2.54 mL and 2.32 mL (2×) and 3.06 mL and 2.61 mL and 2.19 mL and 2.63 mL. The “Average animal paw volume percent change” value (CIA rats, Day 19, right hind paw (R)) was 78.62%, the “Animal paw volume Day 19 R” value (CIA rats, Day 19, right paw, individual animals) was 2.59 mL and 2.46 mL and 2.33 mL (2×) and 3.15 mL and 1.46 mL and 2.20 mL and 2.36 mL and the “Average animal paw volume percent change” value (CIA rats, Day 21, left hind paw (L)) was 91.34%. For the same molecule, the “Animal paw volume Day 21 L” value (CIA rats, Day 21, left paw, individual animals) was 2.71 mL and 2.51 mL and 2.34 mL and 3.04 mL and 2.62 mL and 2.21 mL and 2.54 mL and 2.32 mL, the “Average animal paw volume percent change” value (CIA rats, Day 21, right hind paw (R)) was 78.28% and the “Animal paw volume Day 21 R” value (CIA rats, Day 21, right paw, individual animals) was 2.63 mL and 2.44 mL and 2.21 mL and 3.08 mL and 1.61 mL and 2.18 mL and 2.37 mL and 2.33 mL. The “animals with a clinical score of at least 2 in one or more hind limbs” value (CIA rats, daily P.O. (group 4), day 14) was 5/8, the “animals with clinical scores of 3 or greater in one or more hind limbs” value (CIA rats, daily P.O. (group 4), day 18) was “all animals” and the “animals with a clinical score of 4 in each hind limb” value [1] was 3/8. For the same molecule, the “animals with a score of 4 in at least one hind limb” value [1] was 5/8, the “day on which clinical scores started to increase” value [2] was 14 days and the “effect on hind paw volume” value [2] was “less effective at preventing an increase in paw volume over the course of the study”. For the same molecule, the “average overall clinical score at plateau” value (CIA rats, daily P.O. for 21 days, around day 18) was 8, the “animals showing signs of disease” value (CIA rats, daily P.O., day 12) was “No animals” and the animals exhibiting disease (CIA rats, daily P.O., day 13) was 1/8. For the same molecule, the animals exhibiting disease (CIA rats, daily P.O., day 14) was 5/8, the animals exhibiting disease (CIA rats, daily P.O., day 15) was 7/8 and the animals exhibiting disease (CIA rats, daily P.O., day 18) was “all animals”. The “Mean animal paw volume ± SD” value (Day 0, L paw) was 1.32 mL, the “Animal paw volume percent change” value (Day 0, L paw, individual animals) was 0.00% and the “Mean animal paw volume ± SD” value (Day 0, R paw) was 1.32 mL. The “Animal paw volume percent change” value (Day 0, R paw, individual animals) was 0.00%, the “Average detailed clinical score, left forelimb” value (Day 0, CIA rats) was 0.00 and the “Average detailed clinical score, left hind limb” value (Day 0, CIA rats) was 0.00. The “Average detailed clinical score, right forelimb” value (Day 0, CIA rats) was 0.00, the “Average detailed clinical score, right hind limb” value (Day 0, CIA rats) was 0.00 and the “Average detailed clinical score, score” value (Day 0, CIA rats) was 0.00. The “Mean overall clinical score ± SD” value (Day 0, CIA rats) was 0 ± 0, the “Detailed Clinical Scores, left forelimb” value (Day 0, CIA rats) was 0 and the “Detailed Clinical Scores, left hind limb” value (Day 0, CIA rats) was 0. For the same molecule, the “Detailed Clinical Scores, right forelimb” value (Day 0, CIA rats) was 0, the “Detailed Clinical Scores, right hind limb” value (Day 0, CIA rats) was 0 and the “Detailed Clinical Scores, score” value (Day 0, CIA rats) was 0. The Overall clinical score (Day 0, CIA rats) was 0, the “Mean animal paw volume ± SD” value (Day 6, L paw) was 1.34 mL and the “Animal paw volume percent change” value (Day 6, L paw, individual animals) was −0.39% and 1.52% and 7.91% and −0.73% and 0.36% and 0.00% (2×) and −0.37%. The “Mean animal paw volume ± SD” value (Day 6, R paw) was 1.34 mL, the “Animal paw volume percent change” value (Day 6, R paw, individual animals) was −0.39% and 3.07% and 7.84% and 0.00% (4×) and 1.47% and the “Average detailed clinical score, left forelimb” value (Day 6, CIA rats) was 0.00. For the same molecule, the “Average detailed clinical score, left hind limb” value (Day 6, CIA rats) was 0.00, the “Average detailed clinical score, right forelimb” value (Day 6, CIA rats) was 0.00 and the “Average detailed clinical score, right hind limb” value (Day 6, CIA rats) was 0.00. The “Average detailed clinical score, score” value (Day 6, CIA rats) was 0.00, the “Mean overall clinical score ± SD” value (Day 6, CIA rats) was 0 ± 0 and the “Detailed Clinical Scores, left forelimb” value (Day 6, CIA rats) was 0. The “Detailed Clinical Scores, left hind limb” value (Day 6, CIA rats) was 0, the “Detailed Clinical Scores, right forelimb” value (Day 6, CIA rats) was 0 and the “Detailed Clinical Scores, right hind limb” value (Day 6, CIA rats) was 0. The “Detailed Clinical Scores, score” value (Day 6, CIA rats) was 0, the Overall clinical score (Day 6, CIA rats) was 0 and the “Mean animal paw volume ± SD” value (Day 12, L paw) was 1.36 mL. For the same molecule, the “Animal paw volume percent change” value (Day 12, L paw, individual animals) was 4.33% and 0.76% and 11.07% and 0.00% and 3.28% and 1.50% and 2.28% and 1.85%, the “Mean animal paw volume ± SD” value (Day 12, R paw) was 1.37 mL and the “Animal paw volume percent change” value (Day 12, R paw, individual animals) was 2.76% and 3.07% and 10.98% and 1.47% (2×) and 3.77% (2×) and 2.25%. The “Average detailed clinical score, left forelimb” value (Day 12, CIA rats) was 0.00, the “Average detailed clinical score, left hind limb” value (Day 12, CIA rats) was 0.00 and the “Average detailed clinical score, right forelimb” value (Day 12, CIA rats) was 0.00. The “Average detailed clinical score, right hind limb” value (Day 12, CIA rats) was 0.00, the “Average detailed clinical score, score” value (Day 12, CIA rats) was 0.00 and the “Mean overall clinical score ± SD” value (Day 12, CIA rats) was 0 ± 0. For the same molecule, the “Detailed Clinical Scores, left forelimb” value (Day 12, CIA rats) was 0, the “Detailed Clinical Scores, left hind limb” value (Day 12, CIA rats) was 0 and the “Detailed Clinical Scores, right forelimb” value (Day 12, CIA rats) was 0. For the same molecule, the “Detailed Clinical Scores, right hind limb” value (Day 12, CIA rats) was 0, the “Detailed Clinical Scores, score” value (Day 12, CIA rats) was 0 and the Overall clinical score (Day 12, CIA rats) was 0.
